Assay results published in patent US9029399B2, “17α-hydroxylase/C17,20-lyase inhibitors” (Novartis AG, priority 2011, dated 2015).

Molecular target: Human CYP17 enzyme (Cytochrome P450, 17-20 lyase) (Homo sapiens (Human), UniProt P05093)
Assay: CYP17 lyase assay, recombinant human CYP17 enzyme, 17-α-hydroxy pregnenolone [21-3H] substrate
Type: biochemical
Conditions: recombinant human CYP17, first value of Human/Rat cell; read-out: Lyase IC 50 Human
From the text: 1) Cvtochrome P450, 17-20 Lyase (CYP17-Lyase) Assay Development Using Recombinant Human CYP17 Enzyme and 17-α-Hydroxy Pregnenolone [21-3H] as the Substrate
Cytochrome P450, 17-α-Hydroxylase, 17-20 lyase (CYP17) is a multi functional enzyme that plays a key role in the biosynthesis of steroid hormones. […] In the hydroxylation reaction, it converts progesterone and pregnenolone to the corresponding hydroxylated products 17-α-hydroxy progesterone and 17-α-hydroxy pregnenolone. In the lyase reaction, it catalyzes the conversion of these hydroxylated substrates to Androstenedione and Dehydroepiandrosterone (DHEA) respectively. In the Cyp17 lyase assay described here, the conversion of 17-α-hydroxy pregnenolone to Dehydroepiandrosterone and acetic acid is being monitored.
The conversion of 17-α-hydroxy pregnenolone to Dehydroepiandrosterone is accompanied by the release of acetic acid. In the Cyp17 lyase assay, 17-α-hydroxy pregnenolone labeled with tritium (3H) at position 21 is used as the substrate. Chloroform extraction removes the radioactive steroids and acetic acid is taken into aqueous layer. The tritiated acetic acid released in the assay thus extracted is quantified to determine the enzyme activity.
Human Cyp 17 gene was cloned and expressed in Adenoviral expression system in A549 cell lines. The purified cell membrane preparations were used as the source for Human CYP17 enzyme. Total protein concentration: 8 mg/mL.
For routine screening, the assay was set up with 16 μg of enzyme in 50 μL reaction volume. 17α-hydroxy pregnenolone [21-3H] was added to a final concentration of […] NADPH is used at a final concentration of 4.2 mM. Total reaction volume was made up to 50 μL with 50 mM Phosphate buffer pH 7.5. The reaction mixture was incubated at room temperature for 90 minutes with gentle shaking. The reaction was stopped by the addition of 100 μl, of buffer. 500 μl, of 5% freshly prepared activated charcoal was added to the solution and mixed well by vortexing. The samples were centrifuged at 17568×g for 5 minutes. (14000 rpm). The supernatant was carefully transferred to fresh tube and 1.3 mL of scintillation fluid was added, mixed by vortexing.
The measurements were carried out in 2.0 mL Eppendorf™ tubes. Each tube was counted for 1 minute. The amount of tritiated acetic acid released is proportional to the lyase activity. Percent lyase activity in presence of inhibitor was calculated using the formula given below.
[formula] Sample: Enzyme reaction in presence of inhibitor. Positive control: Enzyme reaction without inhibitor but containing DMSO at 1% final concentration. Blank—Contains all reagents except enzyme. % Inhibition=100%−% Lyase activity
For IC50 determination, the % inhibition was plotted as a function of inhibitor concentration. The data was fitted to sigmoidal equation using Graphpad Prism® software IV to generate IC50 values.

Chain of Human CYP17 enzyme (Cytochrome P450, 17-20 lyase) (P05093 whole entry): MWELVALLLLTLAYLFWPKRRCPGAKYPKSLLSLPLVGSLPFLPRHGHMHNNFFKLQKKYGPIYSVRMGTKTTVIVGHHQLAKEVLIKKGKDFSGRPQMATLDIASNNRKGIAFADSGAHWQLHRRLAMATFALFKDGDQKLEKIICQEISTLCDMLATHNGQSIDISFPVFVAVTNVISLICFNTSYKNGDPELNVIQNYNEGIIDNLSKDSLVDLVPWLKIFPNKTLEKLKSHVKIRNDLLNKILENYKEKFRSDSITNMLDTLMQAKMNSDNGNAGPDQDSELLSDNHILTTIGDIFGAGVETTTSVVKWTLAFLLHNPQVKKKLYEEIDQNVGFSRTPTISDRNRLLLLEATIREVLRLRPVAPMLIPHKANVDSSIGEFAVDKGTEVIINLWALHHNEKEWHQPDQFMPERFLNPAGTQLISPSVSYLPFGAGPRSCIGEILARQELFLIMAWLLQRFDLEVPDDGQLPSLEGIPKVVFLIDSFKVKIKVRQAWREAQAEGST

First: O=C1N(c2ccc3ccccc3c2)CCN1c1cnccc1C1CC1 [Example 3A, 1-(4-cyclopropylpyridin-3-yl)-3-(naphthalen-2-yl)imidazolidin-2-one]
Second: O=C1N(c2ccc3sccc3c2)CCN1c1cnccc1C1CC1 [Example 4A, 1-(benzo[b]thiophen-5-yl)-3-(4-cyclopropylpyridin-3-yl)imidazolidin-2-one]
The IC50 of the first is 2-fold higher: 0.026 µM for the first, 0.013 µM for the second.

Going from `O=C1N(c2cccc(C(F)(F)F)c2)CCN1c1cnccc1C1CC1` [Example 5A, 1-(4-cyclopropylpyridin-3-yl)-3-(3-(trifluoromethyl)phenyl)imidazolidin-2-one] to `O=C1N(c2cc(C(F)(F)F)ccn2)CCN1c1cnccc1C1CC1` [Example 8A, 1-(4-cyclopropylpyridin-3-yl)-3-(4-(trifluoromethyl)pyridin-2-yl)imidazolidin-2-one], the IC50 rises from 0.006 µM to 0.022 µM (3.7-fold).

Going from `O=C1N(c2cc3ccccc3s2)CCN1c1cnccc1C1CC1` [Example 6A, 1-(benzo[b]thiophen-2-yl)-3-(4-cyclopropylpyridin-3-yl)imidazolidin-2-one] to `O=C1N(c2cc3cc(F)ccc3s2)CCN1c1cnccc1C1CC1` [Example 22A, 1-(4-cyclopropylpyridin-3-yl)-3-(5-fluorobenzo[b]thiophen-2-yl)imidazolidin-2-one], the IC50 falls from 0.013 µM to 0.007 µM (1.9-fold). The second is the more potent here.

Going from `Cc1nc(Cl)cc(N2CCN(c3cnccc3C3CC3)C2=O)n1` [Example 7A, 1-(6-chloro-2-methylpyrimidin-4-yl)-3-(4-cyclopropylpyridin-3-yl)imidazolidin-2-one] to `O=C1N(c2cc(Cl)ncn2)CCN1c1cnccc1C1CC1` [Example 10A, 1-(6-chloropyrimidin-4-yl)-3-(4-cyclopropylpyridin-3-yl)imidazolidin-2-one], the IC50 rises from 0.041 µM to 0.121 µM (3-fold). The first is the more potent here.

First: O=C1N(c2ccnc(C(F)(F)F)n2)CCN1c1cnccc1C1CC1 [Example 12A, 1-(4-cyclopropylpyridin-3-yl)-3-(2-(trifluoromethyl)pyrimidin-4-yl)imidazolidin-2-one]
Second: O=C1N(c2cc(Cl)nc(C(F)(F)F)c2)CCN1c1cnccc1C1CC1 [Example 37A, 1-(2-chloro-6-(trifluoromethyl)pyridin-4-yl)-3-(4-cyclopropylpyridin-3-yl)imidazolidin-2-one]
The IC50 of the first is 20-fold higher: 0.099 µM for the first, 0.005 µM for the second. The second is the more potent here.

Going from `O=C1N(c2ccc3scc(C(F)(F)F)c3c2)CCN1c1cnccc1C1CC1` [Example 13A, 1-(4-cyclopropylpyridin-3-yl)-3-(3-(trifluoromethyl)benzo[b]thiophen-5-yl)imidazolidin-2-one] to `O=C1N(c2ccc3c(C(F)(F)F)csc3c2)CCN1c1cnccc1C1CC1` [Example 23A, 1-(4-cyclopropylpyridin-3-yl)-3-(3-(trifluoromethyl)benzo[b]thiophen-6-yl)imidazolidin-2-one], the IC50 rises from 0.011 µM to 1.21 µM (110-fold).

`O=C1N(c2ccc3sc(F)cc3c2)CCN1c1cnccc1C1CC1` [Example 14A, 1-(4-cyclopropylpyridin-3-yl)-3-(2-fluorobenzo[b]thiophen-5-yl)imidazolidin-2-one] and `O=C1N(c2ccc3cc(F)sc3c2)CCN1c1cnccc1C1CC1` [Example 25A, 1-(4-cyclopropyl-pyridin-3-yl)-3-(2-fluoro-benzo(b)thiophene-6-yl)imidazolidin-2-one] are within 1.5-fold of each other in IC50: 0.026 µM for the first, 0.03 µM for the second.

Going from `Cc1csc2ccc(N3CCN(c4cnccc4C4CC4)C3=O)cc12` [Example 15A, 1-(4-cyclopropylpyridin-3-yl)-3-(3-methylbenzo[b]thiophen-5-yl)imidazolidin-2-one] to `Cc1csc2cc(N3CCN(c4cnccc4C4CC4)C3=O)ccc12` [Example 18A, 1-(4-cyclopropylpyridin-3-yl)-3-(3-methylbenzo[b]thiophen-6-yl)imidazolidin-2-one], the IC50 rises from 0.0067 µM to 0.076 µM (11-fold).

`O=C1N(c2ccc3ccsc3c2)CCN1c1cnccc1C1CC1` [Example 16A, 1-(benzo[b]thiophen-6-yl)-3-(4-cyclopropylpyridin-3-yl)imidazolidin-2-one] and `O=C1N(c2cc(F)c3ccsc3c2)CCN1c1cnccc1C1CC1` [Example 26A, 1-(4-cyclopropyl-pyridin-3-yl)-3-(4-fluoro-benzo[b]thiophen-6-yl)imidazolidin-2-one] are within 1.5-fold of each other in IC50: 0.007 µM for the first, 0.006 µM for the second.

Compared with `O=C1N(c2ccc3c(c2)OC(F)(F)O3)CCN1c1cnccc1C1CC1` [Example 17A, 1-(4-cyclopropylpyridin-3-yl)-3-(2,2-difluorobenzo[d][1,3]dioxol-5-yl)imidazolidin-2-one], `Cc1c(F)sc2ccc(N3CCN(c4cnccc4C4CC4)C3=O)cc12` [Example 24A, 1-(4-Cyclopropyl-pyridin-3-yl)-3-(2-fluoro-3-methylbenzo[b]thiophen-5-yl)-imidazolidin-2-one] is 3.1-fold lower in IC50: 0.058 µM for the first, 0.019 µM for the second.

First: Cc1coc2ccc(N3CCN(c4cnccc4C4CC4)C3=O)cc12 [Example 19A, 1-(4-cyclopropylpyridin-3-yl)-3-(3-methylbenzofuran-5-yl)imidazolidin-2-one]
Second: O=C1N(c2ccc3sc(Cl)cc3c2)CCN1c1cnccc1C1CC1 [Example 20A, 1-(2-chlorobenzo[b]thiophen-5-yl)-3-(4-cyclopropylpyridin-3-yl)imidazolidin-2-one]
The IC50 of the first is 39-fold lower: 0.0027 µM for the first, 0.106 µM for the second.

`O=C1N(c2ccc3c(c2)CCC3)CCN1c1cnccc1C1CC1` [Example 21A, 1-(4-cyclopropylpyridin-3-yl)-3-(2,3-dihydro-1H-inden-5-yl)imidazolidin-2-one] and `O=C1N(c2ccnc(Cl)c2)CCN1c1cnccc1C1CCCC1` [Example 34A, 1-(2-chloropyridin-4-yl)-3-(4-cyclopentyl-pyridin-3-yl)-imidazolidin-2-one] are within 1.5-fold of each other in IC50: 0.017 µM for the first, 0.013 µM for the second.

`O=C1N(c2cc3sccc3cc2F)CCN1c1cnccc1C1CC1` [Example 27A, 1-(4-cyclopropyl-pyridin-3-yl)-3-(5-fluoro-benzo[b]thiophen-6-yl)imidazolidin-2-one] and `O=C1N(c2cc3ccsc3cc2F)CCN1c1cnccc1C1CC1` [Example 28A, 1-(4-cyclopropylpyridin-3-yl)-3-(6-fluorobenzo[b]thiophen-5-yl)imidazolidin-2-one] are within 1.5-fold of each other in IC50: 0.461 µM for the first, 0.548 µM for the second.

Compared with `O=C1N(c2ccnc(Cl)c2)[C@@H]2C[C@@H]2N1c1cnccc1C1CC1` [Example 30A-I, (1R,5S)-2-(2-chloropyridin-4-yl)-4-(4-cyclopropylpyridin-3-yl)-2,4-diazabicyclo[3.1.0]hexan-3-one], `O=C1N(c2cnccc2C2CC2)[C@@H]2C[C@@H]2N1c1ccnc(Cl)c1` [Example 30A-II, (1S,5R)-2-(2-chloropyridin-4-yl)-4-(4-cyclopropylpyridin-3-yl)-2,4-diazabicyclo[3.1.0]hexan-3-one] is 27-fold lower in IC50: 0.161 µM for the first, 0.006 µM for the second. The second is the more potent here.

Going from `COc1cc(N2C(=O)N(c3cnccc3C3CC3)[C@H]3C[C@H]32)ccn1` [Example 31A-1, (1S,5R)-2-(4-cyclopropylpyridin-3-yl)-4-(2-methoxypyridin-4-yl)-2,4-diazabicyclo[3.1.0]hexan-3-one] to `COc1cc(N2C(=O)N(c3cnccc3C3CC3)[C@@H]3C[C@@H]32)ccn1` [Example 31A-II, (1R,5S)-2-(4-cyclopropylpyridin-3-yl)-4-(2-methoxypyridin-4-yl)-2,4-diazabicyclo[3.1.0]hexan-3-one], the IC50 falls from 0.169 µM to 0.012 µM (14-fold). The second is the more potent here.

Compared with `O=C1N(c2ccnc(C(F)(F)F)c2)[C@@H]2C[C@@H]2N1c1cnccc1C1CC1` [Example 32A-I, (1S,5R)-2-(4-cyclopropylpyridin-3-yl)-4-(2-(trifluoromethyl)pyridin-4-yl)-2,4-diazabicyclo[3.1.0]hexan-3-one], `O=C1N(c2cc(C3CC3)ncn2)CCN1c1cnccc1C1CC1` [Example 38A, 1-(4-cyclopropylpyridin-3-yl)-3-(6-cyclopropylpyrimidin-4-yl)imidazolidin-2-one] is 3.8-fold lower in IC50: 0.184 µM for the first, 0.048 µM for the second.

First: O=C1N(c2ccnc(Cl)c2)CCN1c1cnccc1C1(O)CCC1 [Example 33A, 1-(2-chloro-pyridin-4-yl)-3-[4-(1-hydroxy-cyclobutyl)-pyridin-3-yl]imidazolidin-2-one]
Second: O=C1N(c2ccnc(Cl)c2)CCN1c1cnccc1C1(O)CCCC1 [Example 35A, 1-(2-chloropyridin-4-yl)-3-[4-(1-hydroxycyclopentyl)-pyridin-3-yl]-imidazolidin-2-one]
The IC50 of the first is 7.6-fold lower: 0.045 µM for the first, 0.341 µM for the second.

For `O=C1N(c2cccc(C(F)(F)F)c2)CCN1c1cnccc1C1(O)CC1` [Example 36A, 1-[4-(1-hydroxy-cyclopropyl)-pyridin-3-yl]-3-(3-trifluoromethyl-phenyl)-imidazolidin-2-one], the IC50 was 0.027 µM.
